What was measured:
[1] = In vivo toxicity, daily injection for one month; set-up: species or system rat; settings: rats, 48 mg/kg daily injection for one month
[2] = test system: social isolated rats; assay: Novel object recognition test, social isolated animals, 1 h ITI; type: in vivo, rat; settings: 10 mg/kg subcutaneously 1 h before task
Source text: Cognitive dysfunction, including impaired recognition memory, are common features in depressed patients (Egeland et al., Scand. J. Psychol. 2005). The present experiment explored the ability of 3-methoxy-PREG (43B) administration to increase recognition memory retention in naive animals and to recover recognition memory deficits in animals submitted to the social isolation protocol. Rearing rats in isolation from the time of weaning and throughout adulthood can induce a series of hippocampal structural and molecular deficits paralled by behavioural alterations resembling a depressive-like state (Weiss and Feldon, Psychopharmacology 2001; Bianchi et al., EJN 2006). Recognition memory was assessed using the NOR test which is a two-trial test of recognition memory based on the spontaneous preference of rats for novelty (Ennaceur and Delacour, Behav. Brain. Res. 1988; Bianchi et al. EJN. 2006). Briefly, rats are placed in the open field arena for a 3 min period of habituation and then re-placed in their “home” cage for 1 min. The animals are then re-placed in the arena for the familiarization trial (T1) and allowed to explore two identical objects for 5 min. […] The ability of the animals to discriminate between the novel and the familiar object is then expressed as D2-INDEX: [novel object (sec)−familiar object (sec)]/[novel object (sec)+familiar object (sec)] […]

[3] = test system: GFAP; assay: GFAP immunohistochemistry after Lateral Fluid Percussion (LFP); type: in vivo, rat
Source text: After anesthesia induction, the animal was placed on a stereotaxic frame. To expose the dura mater, craniotomy (diameter 5 mm) was under the left parietal cortex (−3.6 mm from Bregma, −3.0 mm from midline). A female Luer-Lock was placed over the craniotomy and was secured to the parietal bone with dental cement. The Luer-Lock was then filled with isotonic saline to create an interface with the dura meter.
Trauma was induced by a fluid percussion device (Custom Design and Manufacturing, United. Kingdom) (Besson et al., 2003) it is a cylindrical tank (60 cm long), with a piston on one side, over which a hammer exercises a constraint, and a male Luer-Lock on the other side. […] The amplitude of each shock wave was measured via a pressure transducer connected to the terminal portion of the device. The pressure signal was recorded on an oscilloscope. […]
After mounting on Superfrost slides, frozen sections were dried for 90 minutes at room temperature and stored at −80° C. until use. […] Immunostaining was quantitatively assessed by optical density measurements directly from the section image (Image J). […]
GFAP expression was measured by immunohistochemistry at day 35 post-trauma in injured and uninjured cortex, thalamus and hippocampus of LFP traumatized, rats treated with vehicle (sesame oil), or 3-methoxy-PREG (MAP4343) at 10 mg/kg or 20 mg/kg, with first injection at 2 hours post-trauma.

CO[C@H]1CC[C@@]2(C)C(=CC[C@H]3[C@@H]4CC[C@H](C(C)=O)[C@@]4(C)CC[C@@H]32)C1 [3-methoxy-PREG, 3β-methoxy-pregna-5-ene-20-one]
average weight and behavior [1]: affected neither average weight nor behavior | discrimination between familiar and novel object [2]: efficiently discriminated between the familiar and the novel object | astrocytes GFAP immunoreactivity in the injured cortex ([3]; day 35, 10 mg/kg or 20 mg/kg, first injection 2 hours post-trauma): highly decreased | astrocytes immunoreactivity in the injured thalamus ([3]; day 35, especially Dose2 (20 mg/kg)): strongly decreases astrocytes immunoreactivity

— patent US9339508B2, “Use of 3-methoxy-pregnenolone for the preparation of a drug for treating a traumatic brain injury” (MAPREG, priority 2003, dated 2016)
